This is an account of results in patent US20050164331A1, “Method and device for detecting toxic material in water using microbial fuel cell” (priority 2002, published 2005).

Each structure is given as a SMILES string. Like-named read-outs stand apart in the source and are kept apart here.

The subject of data set [1] is electrochemically active bacteria in the sludge.
From the text: The sample enters into the anode part after passing through the first and the second pretreatment tanks(2,3). The anode part is composed of a carbon felt and platinum(Pt) wire, while its inside part is filled usually with a microorganism catalyst which generates electrochemical energy using organic raw material. The cathode part is filled with ordinary water. Namely, the sample containing organic materials enters into the anode and the water-saturated with air enters the cathode. Now the organic materials are decomposed by microorganism at the anode part of the fuel cell and a current is generated. The current moves along the Pt wire and is measured by the voltmeter.
Active sludge was introduced into the anode part so that the electrochemically active bacteria in the sludge are attached to the electrode and densely cultured. To the cathode part, water saturated with air was incorporated, keeping a certain potential difference so as to make an efficient biological electrochemical reaction occur in the microbial fuel cell. Into this microbial fuel cell, added were glucose and glutamic acid(CODcr 200 ppm, which means the chemical oxygen demand due to the potassium dichromate) as fuel and the generated current was measured by the volt meter(2000 multimeter, Keithley Instrument. Inc, USA) at 60 seconds interval, while adding to the used fuel cell, Cr^6+ standard solution successively in the concentration of 0.01 ppm, 0.02 ppm, 0.03 ppm, 0.04 ppm and 0.05 ppm.
For another data set, the system named is golden dace. The note with it: 8 ppm phenol introduced to water; cited from earlier work.
Setting [2] is: microbial fuel cell with active sludge, fuel glucose and glutamic acid (CODcr 200 ppm), standard solution added successively at 0.01-0.05 ppm, current measured at 60 seconds interval.

`[Pb]` [Pb, lead]: in data set [1] (setting [2]), the “concentration at which the constantly generated current showed a sharp drop” value (“concentration” below) turned out to be 0.04 ppm. `[Cr+6]` [Cr^6+]: the “concentration” value in data set [1] (setting [2]) came out at 0.04 ppm. On to `Oc1ccccc1` [phenol], for which the “concentration” value in data set [1] was determined as 0.03 ppm. Also, the “time required to determine the toxicity using fish” value with golden dace is 8 h.
